Results on 1 molecule are retold here after ChEMBL document CHEMBL6092220 (J Med Chem, 2024).

Activity calls are given as the source filed them. The calls are words filed in the database; no cut-off is given here.

Data set [1] has as its target T1, Protein cereblon/Signal transducer and activator of transcription 3 (Mus musculus) (UniProt P42227+Q8C7D2). Kind of data set: In-vivo PROTAC activity at STAT3/CRBN in female CB17 SCID mouse assessed as reduction STAT3 level liver at 10 mg/kg, iv measured at 48 hrs by Western blot analysis. Type of data set: functional, organism-based. More on the design: scale not given: the % may be the effect or the level left.

Data set [2] has as its target T1, Protein cereblon/Signal transducer and activator of transcription 3 (Mus musculus). In words: In-vivo PROTAC activity at STAT3/CRBN in female CB17 SCID mouse assessed as reduction STAT3 level liver at 10 mg/kg, iv measured at 72 hrs by Western blot analysis. The class given is functional, organism-based. More on the design: scale not given: the % may be the effect or the level left.

A short description of data set [3]: Antiproliferative activity against human MOLM16 cells assessed as cell growth inhibition incubated for 4 days by celltiter-glo assay. As to conditions: MOLM16, 96 h. The class given is functional, cell-based, MOLM-16.
Data set [4] in a line: Antiproliferative activity against human SUPM2 cells assessed as cell growth inhibition incubated for 4 days by celltiter-glo assay. As to conditions: SUP-M2, 96 h. Type of data set: functional, cell-based.
Data set [5] in a line: Cmax in Sprague-Dawley rat at 5 mg/kg, iv. Type of data set: ADME, organism-based. As to conditions: in vivo.
Data set [6] can be described thus: Plasma protein binding in dog assessed as unbound fraction at 10 uM. Type of data set: ADME, cell-free, Canis lupus familiaris.
Data set [7] deals with Protein cereblon/Signal transducer and activator of transcription 4 (Homo sapiens, UniProt Q96SW2+Q14765). Kind of data set: PROTAC activity at STAT4/CRBN in human PBMC cells assessed as reduction in STAT4 level incubated for 20 hrs by Western blot analysis. Type of data set: cell-based.
Data set [8] concerns the target Protein cereblon/Signal transducer and activator of transcription 5A (Homo sapiens) (UniProt P42229+Q96SW2). Kind of data set: PROTAC activity at STAT5A/CRBN in human PBMC cells assessed as reduction in STAT5A level upto 40 uM incubated for 20 hrs by Western blot analysis. Type of data set: cell-based.
Data set [9] can be described thus: Stability in rat plasma assessed as half life. Type of data set: ADME, cell-free.
A short description of data set [10]: Stability in human plasma assessed as half life. Type of data set: ADME, cell-free.
Another data set has as its target Cytochrome P450 2D6 (Homo sapiens, UniProt P10635). In words: Inhibition of CYP2D6 (unknown origin). Type of data set: ADME.
Data set [11] addresses Protein cereblon/Signal transducer and activator of transcription 2 (Homo sapiens) (UniProt Q96SW2+P52630). In words: PROTAC activity at STAT2/CRBN in human MOLM16 cells assessed as reduction in STAT2 level upto 40 uM incubated for 4 hrs by Western blot analysis. Type of data set: cell-based.
Data set [12] addresses T2, Protein cereblon/Signal transducer and activator of transcription 3 (Homo sapiens, UniProt P40763+Q96SW2). Kind of data set: PROTAC activity at his-SUMO-tagged STAT3 (127 to 688 residues)/CRBN in human PBMC cells assessed as reduction in STAT3 level upto 40 uM incubated for 20 hrs by Western blot analysis relative to control. The class given is cell-based. More on the design: scale not given: the % may be the effect or the level left.

In data set [13] the target is T2, Protein cereblon/Signal transducer and activator of transcription 3. Kind of data set: PROTAC activity at his-SUMO-tagged STAT3 (127 to 688 residues)/CRBN in human SU-DHL-1 cells assessed as reduction in STAT3 level upto 40 uM incubated for 20 hrs by Western blot analysis relative to control. The class given is cell-based. The arrangement: scale not given: the % may be the effect or the level left.

Data set [14] has the same target. Kind of data set: PROTAC activity at his-SUMO-tagged STAT3 (127 to 688 residues)/CRBN in human Pfeiffer cells assessed as reduction in STAT3 level upto 40 uM incubated for 4 hrs by Western blot analysis relative to control. Type of data set: cell-based. The arrangement: scale not given: the % may be the effect or the level left.
The species named for a further data set is Homo sapiens. In words: Binding affinity to STAT5 (unknown origin) assessed as maximum inhibition by FP assay relative to control.
In data set [15] the target is T1, Protein cereblon/Signal transducer and activator of transcription 3 (Mus musculus). Kind of data set: In-vivo PROTAC activity at STAT3/CRBN in female CB17 SCID mouse assessed as reduction in STAT3 level spleen at 5 mg/kg, iv measured at 72 hrs by immunobloting analysis. The class given is functional, organism-based. The arrangement: scale not given: the % may be the effect or the level left.

Data set [16] is described as follows: Drug concentration in female CB17 SCID mouse liver at 5 mg/kg, iv measured at 72 hrs by LC-MS/MS analysis. Type of data set: ADME, organism-based. As to conditions: read-out: Ct.
A short description of data set [17]: Drug concentration in female CB17 SCID mouse tumor at 5 mg/kg, iv measured at 48 hrs by LC-MS/MS analysis. As to conditions: read-out: Ct. The class given is ADME, organism-based, Neoplasm.
The nature of data set [18]: Drug concentration in female CB17 SCID mouse tumor at 5 mg/kg, iv measured at 72 hrs by LC-MS/MS analysis. The class given is ADME, organism-based, Neoplasm. The note with it: read-out: Ct.
The nature of data set [19]: Toxicity in iv dosed mouse assessed as weight gain. Type of data set: organism-based. The note with it: in vivo, dose 5-20 mg/kg.
Data set [20] can be described thus: Antitumor activity against human MOLM16 cells xenografted in mouse assessed as tumor growth inhibition at 10 mg/kg, iv. Type of data set: functional, MOLM-16. As to conditions: read-out: TGI.
The nature of data set [21]: Antitumor activity against human MOLM16 cells xenografted in mouse assessed as tumor regression at 25 mg/kg, iv administered twice daily. The class given is functional, MOLM-16.

As to `COC(=O)N1CC[C@H]2CC[C@@H](C(=O)N[C@@H](CCC(N)=O)C(=O)N[C@@H](Cc3ccc(F)c(F)c3)C(=O)N3CCC(CCC#Cc4cccc5c4CN(C4CCC(=O)NC4=O)C5=O)CC3)N2C(=O)[C@@H](NC(=O)c2cc3cc(C(F)(F)P(=O)(O)O)ccc3s2)C1` (stereo partly drawn), the Activity in data set [1] was greater than 90%; in [2] it was greater than 90%; in [12] it was greater than 95%; in [13] it was greater than 95%; in data set [14], greater than 95%; in data set [15], greater than 90%. Also, the Activity result in data set [19] was “Non-toxic”; in [21] it was 100%. Further, the IC50 in [3] was 38 nM; in [4], 390 nM; against Cytochrome P450 2D6 it was greater than 10000 nM. This molecule came in with a Cmax in data set [5] of 82.6 µg/mL. Besides, the Fu in data set [6] is recorded as 1.7%. Further, the DC50 in data set [7] was determined as 1600 nM. Besides, the outcome in data set [8] and in [11] was inactive. Besides, the t1/2 in data set [9] and in data set [10] was greater than 2 h in each case. The Imax in the data set listed under Homo sapiens stood at 50%. In addition, the values for the concentration at 72 h in [16] and in data set [18] were 598 ng/g and 925 ng/g, respectively. In data set [17], the concentration at 48 h is 1110 ng/g. The inhibition in vivo at 10 mg/kg in [20] amounted to 54%.
